{"source": "patent US20050261194A1", "about": "“Use of thymulin-like peptides for making pain-relieving medicines” (priority 2001, published 2005)", "assay_type_in_all_cases": "in vivo, rat", "key": {"rats [1]": {"test_system": "rats", "assay": "Fever (rectal temperature) induced by intraperitoneal ET", "details": "TAP 25 μg i.p. before ET 50 μg i.p.; rectal temperature 1, 3, 6 h; FIG. 4C", "description": "Protocol 2(b): Different groups of rats (n=5 in each group) were treated in the following fashion • either they received one intraperitoneal injection of 50 μg of ET, • or they were pretreated with the TAP peptide (25 μg, intraperitoneal injection), 30 minutes before an injection of endotoxin.\nRectal temperature was measured at 1 hour, 3 hours and 6 hours.\nA control group received an intraperitoneal injection of TAP peptide (25 μg dissolved in 100 μl of saline solution)."}, "TNF-α": {"test_system": "TNF-α", "assay": "TNF-α in hind paw skin after intraplantar ET (ELISA)", "description": "These experiments required tissue sampling. The animals were sacrificed by anesthesia (sodium penthiobarbital, 50 mg/kg) and the skin of the hind paws is sampled either at 1 h (for the determination of the TNFα) or at 4 h (for the determination of IL-1β, IL-6 and NGF) after the endotoxin injection.\nThese tissue samples are weighed and then quick frozen and stored at −70° C. with a view of proceeding with the evaluation of IL-1β, TNFα, IL-6 and NGF.\nIn another series of experiments, the tissues are taken as described above using different groups of rats; the one group being pretreated with TAP 30 minutes before injection of ET and the other group having been injected with TAP only.\nThe tissues are homogenized in a phosphate buffer solution (PBS, pH=7.4), containing 0.4 M of NaCl, 0.05% of Tween-20®, 0.5% bovine serum albumin (BSA), 0.1 mM of phenylmethylsulfonyl fluoride, 0.1 mM of benzethonium chloride, 10 mM of EDTA and 20 KI/mL of aprotinin.\nThe mixture is then centrifuged at 1,200 g for 60 minutes at 4° C. The cytokines and the NFG contained in the supernatant were measured using ELIZA assays. […]"}, "rats [2]": {"test_system": "rats", "assay": "Hyperalgesia induced by intraplantar injection of capsaicin; PP, HP, PI tests", "description": "Injection of capsaicin (10 μg in 50 μl of a 10% solution of Tween 20 in olive oil) produced hyperalgesia, whose peak was at three to six hours after injection and which disappeared at the end of 24 hours. Mechanical hyperalgesia was evaluated using the paw pressure test (PP), which consists in applying a constant pressure of 0.2 kg/cm on the dorsal part of the hind paw. The time lapsed between the application of the pressure and the nociceptive reflex of retraction of the paw was considered as the latency time (or threshold) of mechanical nociceptive. Thermal hyperalgesia was evaluated using the hot-plate (HP) test and the paw immersion (PI) test.\nThe HP and PI tests were done as in Example 1, the hot-plate having a temperature 52.5±0.3° C. and the hot water container at 48±0.3° C.\nThe PP and PI tests were done one after the other on the two hind paws observing an interval of five minutes between two consecutive tests.\nThe rats were sent to the laboratory one week prior to injection so that they would become accustomed to the environment and the tests were done on the rats over two or three days in order to obtain the baseline value for each test before any treatment (detailed description in Kanaan S. A. et al., 1996, Endotoxin-induced local inflammation and hyperalgesia in rats and mice: a new model for inflammatory pain, Pain, 66:373-379).\nIn the course of the experiments involving the injection […]. of capsaicin, the mean of the measurements done using each pain test (PP, HP or PI) was calculated for each group of rats prior to the injection of the capsaicin (baseline condition) and at different time intervals after injection (3, 6, 9 and 24 hours). TAP was injected (i.p.) thirty minutes before the capsaicin and the latency times of the different pain tests were measured at the same intervals of time after injection of the capsaicin."}}, "data": [{"substance": "Glu-Ala-lys-Ser-Gln-Gly-Gly-Ser-Asp (SQGGSD; N-terminal Glu-Ala-Lys; printed: Ser-Gln-Gly-Gly-Ser-Asp) [TAP]", "values": [{"measurement": "effect on ET-induced increase of body temperature", "setting": "rats [1]", "result": "nullified the process of increase of body temperature"}, {"measurement": "change of TNF-α concentration, TAP alone", "setting": "TNF-α; TAP 25 μg in control animals, no ET", "result": "did not induce significant change"}, {"measurement": "effect on ET-induced increase of TNF-α concentration", "setting": "TNF-α; TAP pretreatment 30 min before ET, paw, one hour after ET, ET alone 345.0±61.0, saline 100.0±8.00 pg/paw", "result": "nullified the increase of the TNF-α concentration"}, {"measurement": "modification of latency times in the pain tests, TAP alone", "setting": "rats [2]; TAP 25 μg, no capsaicin, FIG. 8 controls", "result": "did not result in significant modification"}, {"measurement": "effect on capsaicin-induced hyperalgesia at the more elevated dose", "setting": "rats [2]; TAP highest dose i.p. before capsaicin 10 μg i.pl.", "result": "complete prevention"}, {"measurement": "effect on hyperalgesia induced by intraplantar capsaicin", "setting": "rats [2]; TAP i.p. 1.5 or 25 μg/rat thirty minutes before capsaicin 10 μg, FIG. 8", "result": "dose-dependent attenuation"}]}]}
